Experimental data from patent US20250188030A1, “Biphenyl and Phenylpyridine Compounds” (Pfizer Inc., priority 2023, published 2025).
Like-named read-outs stand apart in the source and are kept apart here.

What was measured:
H3K9AC (HT1080 cells) = assay: H3K9AC Sandwich ELISA Assay in HT1080 cells (KAT2A primary cell-based screening assay); design: species or system Human
Summary of the method: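 Acetylated H3K9 quantified by luminescent sandwich ELISA (total H3 capture, H3K9ac detection) on HCl lysates of HT1080 cells. Cells had 24 h compound exposure at 37 °C, top concentration 10 µM, 10-point 3-fold series, 0.1% DMSO; IC50 from four-parameter fitting.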

MM.1S cells = assay: MM1.S 10 Day Proliferation Assay (CellTiter-Glo); type: cell-based, Human
Procedure: Human B lymphoblast cell line MM.1S was obtained from American Type Culture Collection (ATCC), Manassas, VA USA, Cat. MM.1S (ATCC® CRL-2974™). Cells were cultured in RPMI (Thermo Fisher Scientific/Gibco Life Technologies Cat. #111875-093) plus 10% (v/v) FBS (Thermo Fisher Scientific/Gibco Life Technologies Cat. #26140-079) and 1% Penicillin-Streptomycin (Thermo Fisher Scientific/Gibco Life Technologies Cat. #15070063) at 37° C. in 5% CO2.
MM1.S cells were trypsinized cell viability count performed, and cells suspended in complete media at 5,556 cells/ml. Cells were then seeded (90 μl/well) into a 96-well round black/clear bottom, ULA (Ultra-Low Attachment surface plate (Corning cat #4520) at a density of 500 cells/well. Cells were then incubated for 16 hours at 37° C. and 5% CO2. Compound dilution plates were prepared in 96-well, clear U-bottom, polypropylene plates (Corning 3365) in 100% DMSO at 10 mM stock concentration in duplicate wells, using a 10-point serial dilution (1:3 dilutions). Compounds were diluted to 1:100 in growth medium. Then 10 μl of diluted compounds were added to each well of the cell plates using a Beckman FX liquid handling system such that the highest compound concentration tested was 10 μM final, with a 0.1% final DMSO concentration in the total volume of 100 μl. Plates were incubated for 10 total days at 37° C. and 5% CO2. Fresh media containing compound was refreshed at 5 days treatment.
Finally, the treatment plates were removed from the incubator and 100 μl of CellTiter-Glo Luminescent reagent was added to each well, and plates were equilibrated in the dark for 30 minutes. Plates were read on the PHERAstar plate reader using the 96-well with Luminescent reading mode. IC50 values were calculated using a four-parameter fit with GraphPad Prism version 9.5.1 or in house modified IDBS ActivityBase data analyzing package.

KAT2A = KAT2A (Homo sapiens (Human), UniProt Q92830); assay: KAT2A acetyltransferase biochemical assay (RapidFire mass spectrometry, AcCoA to CoA)
[1] = Homo sapiens, HT-1080, H3K9AC sandwich ELISA
[2] = read-out: KAT2A Ki at 1 μM AcCoA, 5 μM H3 1-21 peptide, 0.5 nM KAT2A, 90-minute reaction
[3] = KAT2A Ki at 1 μM AcCoA, 5 μM H3 1-21 peptide, 0.5 nM KAT2A, 90-minute reaction

Sequence of KAT2A (Q92830 whole entry): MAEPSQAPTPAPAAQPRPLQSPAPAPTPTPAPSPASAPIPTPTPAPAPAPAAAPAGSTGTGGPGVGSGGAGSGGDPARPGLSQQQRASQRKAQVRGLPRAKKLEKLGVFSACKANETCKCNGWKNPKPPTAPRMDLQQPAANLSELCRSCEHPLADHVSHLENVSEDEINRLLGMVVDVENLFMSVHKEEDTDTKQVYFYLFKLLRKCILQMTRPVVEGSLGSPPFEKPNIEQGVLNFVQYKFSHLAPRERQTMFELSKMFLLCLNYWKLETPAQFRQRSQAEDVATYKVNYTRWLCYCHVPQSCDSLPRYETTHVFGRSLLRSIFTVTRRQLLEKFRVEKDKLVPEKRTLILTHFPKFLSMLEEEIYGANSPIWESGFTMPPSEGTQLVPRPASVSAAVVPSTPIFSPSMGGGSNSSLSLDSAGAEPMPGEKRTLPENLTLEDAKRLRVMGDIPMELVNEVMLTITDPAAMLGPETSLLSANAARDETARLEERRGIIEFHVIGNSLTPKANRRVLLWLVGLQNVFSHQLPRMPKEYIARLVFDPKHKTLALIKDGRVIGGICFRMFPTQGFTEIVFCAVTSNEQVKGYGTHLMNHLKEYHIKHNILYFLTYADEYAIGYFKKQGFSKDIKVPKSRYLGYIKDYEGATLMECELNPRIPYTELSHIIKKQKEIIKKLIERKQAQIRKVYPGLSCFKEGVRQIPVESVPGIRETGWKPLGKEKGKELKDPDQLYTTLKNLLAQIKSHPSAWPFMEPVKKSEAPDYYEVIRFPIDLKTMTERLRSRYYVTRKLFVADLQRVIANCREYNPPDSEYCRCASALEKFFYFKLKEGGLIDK

Compound | IC50 (H3K9AC (HT1080 cells); [1]) | IC50 (MM.1S cells; Homo sapiens, MM1.S, 240 h) | Ki (KAT2A; [2]) | IC50 (H3K9AC (HT1080 cells); H3K9AC sandwich ELISA) | IC50 (MM.1S cells) | Ki (KAT2A; [3])
CC(C)c1c(F)cccc1-c1cc(C(C)(C)C(=O)NS(=O)(=O)C2(C)CC2)ccc1O[C@@H]1CC[C@@H](NC(=O)[C@@]2(F)CNC3(CCC3)C2)C1 (single isomer, unassigned) [Example C43] | 2.8 nM | 4.2 nM | 0.06 nM | – | – | –
CC(C)c1c(F)cccc1-c1cc(C(C)(C)C(=O)O)ccc1O[C@@H]1CC[C@@H](NC(=O)[C@@]2(F)CNC3(CCC3)C2)C1 (single isomer, unassigned) [Example A21] | – | – | > 99.9 nM | > 1000 nM | > 10000 nM | –
CN1CC(C)(C)C[C@H]1C(=O)N[C@H]1C[C@H](COc2ccc(CC(=O)O)cc2-c2cccc(F)c2C2CCC2)C1 [Example F1, [2′-cyclobutyl-3′-fluoro-6-({(1S,3r)-3-[(1,4,4-trimethyl-L-prolyl)amino]cyclobutyl}methoxy)[1,1′-biphenyl]-3-yl]acetic acid] | 41.5 nM | 125 nM | 12.9 nM | – | – | –
CS(=O)(=O)NC(=O)Cc1ccc(O[C@@H]2CC[C@@H](NC(=O)[C@]3(F)CNC4(CCC4)C3)C2)c(-c2cccc(F)c2C2CCC2)c1 (single isomer, unassigned) [Example C38] | 6.1 nM | 10.2 nM | – | – | – | 0.09 nM
O=C(O)c1ccc(O[C@@H]2CC[C@@H](NC(=O)[C@@]3(F)CNC4(CCCC4)C3)C2)c(-c2cccc(F)c2C2CCC2)c1 (single isomer, unassigned) [Example A36] | – | 3.5 nM | 0.1 nM | 0.7 nM | – | –
C[C@H](C(=O)O)c1nn(C)cc1-c1ccc(O[C@@H]2CC[C@@H](NC(=O)[C@]3(F)CNC4(CCC4)C3)C2)c(-c2cccc(F)c2C2CCC2)c1 (single isomer, unassigned) [Example J5] | 2.76 nM | 21.5 nM | 0.19 nM | – | – | –
CCc1c(F)cccc1-c1cc(CC(=O)NS(=O)(=O)C(C)C)ccc1O[C@@H]1CC[C@@H](NC(=O)[C@@]2(F)CNCC(C)(C)C2)C1 (single isomer, unassigned) [Example C67] | 4.4 nM | 13.8 nM | 0.07 nM | – | – | –
CC(C(=O)NS(C)(=O)=O)c1ccc(O[C@@H]2CC[C@@H](NC(=O)[C@@H]3CC(C)(C)CN3C)C2)c(-c2cccc(F)c2C2CCC2)c1 (single isomer, unassigned) [Example E8] | 4.76 nM | – | – | – | 16.4 nM | 0.29 nM
CC(C)c1c(F)cccc1-c1cc(CC(=O)O)ccc1O[C@@H]1CC[C@@H](NC(=O)[C@@]2(F)CNC3(CCC3)C2)C1 [Example A32, [3′-fluoro-6-{[(1R,3R)-3-{[(7S)-7-fluoro-5-azaspiro[3.4]octane-7-carbonyl]amino}cyclopentyl]oxy}-2′-(propan-2-yl)[1,1′-biphenyl]-3-yl]acetic acid] | 4.5 nM | 31.3 nM | 0.84 nM | – | – | –
CC(C)(C(=O)O)c1ccc(O[C@@H]2CC[C@@H](NC(=O)[C@@]3(F)CNCC4(CCC4)C3)C2)c(-c2cccc(F)c2C2CCC2)c1 (single isomer, unassigned) [Example A27] | – | 26.3 nM | 0.16 nM | 7.6 nM | – | –
CC(C)c1ccccc1-c1cc(C(=O)O)ccc1O[C@@H]1CC[C@@H](NC(=O)[C@@]2(F)CNC3(CCCC3)C2)C1 (single isomer, unassigned) [Example A40] | – | – | > 99.9 nM | > 1000 nM | > 1000 nM | –
CC(C)(C(=O)NS(=O)(=O)C1(C)CC1)c1ccc(O[C@@H]2CC[C@@H](NC(=O)[C@@]3(F)CNC4(CCC4)C3)C2)c(-c2cccc(F)c2C2CC2)c1 (single isomer, unassigned) [Example C22] | – | – | 0.14 nM | 4.49 nM | 7.8 nM | –
CC(C)n1cc(-c2ccc(O[C@@H]3CC[C@@H](NC(=O)[C@@]4(F)CNC5(CCC5)C4)C3)c(-c3cccc(F)c3C3CCC3)c2)c(C(=O)O)n1 (single isomer, unassigned) [Example J16] | – | 34.2 nM | 0.08 nM | 4.97 nM | – | –
CC(C)(C(=O)NS(=O)(=O)C1CC1)c1ccc(O[C@@H]2CC[C@@H](NC(=O)[C@@]3(F)CNC4(CCCC4)C3)C2)c(-c2cccc(F)c2C2CCC2)c1 (single isomer, unassigned) [Example B26] | 2.2 nM | 7.4 nM | 0.06 nM | – | – | –
CCc1ccccc1-c1cc(C(C)(C)C(=O)NS(=O)(=O)C(C)C)ccc1O[C@@H]1CC[C@@H](NC(=O)[C@@]2(F)CNC3(CCC3)C2)C1 [Example C46, (7S)-N-[(1R,3R)-3-({2′-ethyl-5-[2-methyl-1-oxo-1-(propane-2-sulfonamido)propan-2-yl][1,1′-biphenyl]-2-yl}oxy)cyclopentyl]-7-fluoro-5-azaspiro[3.4]octane-7-carboxamide] | 7.4 nM | 62.9 nM | 2.16 nM | – | – | –
CN1CC(C)(C)C[C@H]1C(=O)N[C@@H]1CC[C@@H](Oc2ccc(C(C)(C)C(=O)O)cc2-c2cccc(F)c2C2CCC2)C1 [Example D1, 2-[2′-cyclobutyl-3′-fluoro-6-({(1R,3R)-3-[(1,4,4-trimethyl-L-prolyl)amino]cyclopentyl}oxy)[1,1′-biphenyl]-3-yl]-2-methylpropanoic acid] | 52.8 nM | 419 nM | 4.05 nM | – | – | –
CC(C)S(=O)(=O)NC(=O)C(C)(C)c1ccc(O[C@@H]2CC[C@@H](NC(=O)[C@@]3(F)CNC(C)(C)C3)C2)c(-c2cccc(F)c2C2CCC2)c1 (single isomer, unassigned) [Example B18] | – | – | 16.1 nM | 121 nM | 1270 nM | –
CC(C)S(=O)(=O)NC(=O)Cc1cccc(O[C@@H]2CC[C@@H](NC(=O)[C@@]3(F)CNC4(CCC4)C3)C2)c1-c1cccc(F)c1C1CCC1 (atropisomer, axis not shown) [Example I16, (7S)-N-[(1R,3R)-3-({(1ψ)-2′-cyclobutyl-3′-fluoro-6-[2-oxo-2-(propane-2-sulfonamido)ethyl][1,1′-biphenyl]-2-yl}oxy)cyclopentyl]-7-fluoro-5-azaspiro[3.4]octane-7-carboxamide] | – | 31.1 nM | 0.03 nM | 5.8 nM | – | –
CC(C)(C(=O)NS(C)(=O)=O)c1ccc(O[C@@H]2CC[C@@H](NC(=O)[C@@]3(F)CNC4(CCC4)C3)C2)c(-c2cccc(F)c2C2CCC2)c1 [Example C1, (7S)—N-{(1R,3R)-3-[(2′-cyclobutyl-3′-fluoro-5-{1-[(methanesulfonyl)amino]-2-methyl-1-oxopropan-2-yl}[1,1′-biphenyl]-2-yl)oxy]cyclopentyl}-7-fluoro-5-azaspiro[3.4]octane-7-carboxamide] | 18 nM | 36.8 nM | 0.43 nM | – | – | –
CN1CC(C)(C)C[C@H]1C(=O)N[C@@H]1CC[C@@H](Oc2ccc(CC(=O)NS(C)(=O)=O)cc2-c2cccc(F)c2C2CCC2)C1 [Example E2, N-{(1R,3R)-3-[(2′-cyclobutyl-3′-fluoro-5-{2-[(methanesulfonyl)amino]-2-oxoethyl}[1,1′-biphenyl]-2-yl)oxy]cyclopentyl}-1,4,4-trimethyl-L-prolinamide] | 10.8 nM | 61.4 nM | – | – | – | 0.66 nM
O=C(Cc1ccc(O[C@@H]2CC[C@@H](NC(=O)[C@@]3(F)CNC4(CCC4)C3)C2)c(-c2cccc(F)c2C2CCC2)c1)NS(=O)(=O)C1CC1 (single isomer, unassigned) [Example C31] | 1.78 nM | 2.85 nM | 0.02 nM | – | – | –
CC(C)c1ccccc1-c1cc(C(C)(C)C(=O)NS(=O)(=O)C(C)C)ccc1O[C@@H]1CC[C@@H](NC(=O)[C@@]2(F)CNC3(CCC3)C2)C1 [Example C47, (7S)-7-fluoro-N-[(1R,3R)-3-({5-[2-methyl-1-oxo-1-(propane-2-sulfonamido)propan-2-yl]-2′-(propan-2-yl)[1,1′-biphenyl]-2-yl}oxy)cyclopentyl]-5-azaspiro[3.4]octane-7-carboxamide] | 2.9 nM | 14.3 nM | 0.33 nM | – | – | –
C[C@H](C(=O)O)c1ccc(O[C@@H]2CC[C@@H](NC(=O)[C@@]3(F)CNC4(CCC4)C3)C2)c(-c2cccc(F)c2C2CCC2)c1 (single isomer, unassigned) [Example A19] | 10 nM | – | 2.4 nM | – | 431 nM | –
CC(C)S(=O)(=O)NC(=O)C(C)(C)c1ccc(O[C@@H]2CC[C@@H](NC(=O)[C@@]3(F)CNCC(C)(C)C3)C2)c(-c2cccc(F)c2C2CCC2)c1 (single isomer, unassigned) [Example B30] | 1.7 nM | 4.2 nM | 0.09 nM | – | – | –
